Laboratory results: patent US20030161787A1, “Method for the identification of agents and genes influencing cardiovascular function” (priority 2000, published 2003)

Tests used:
zebrafish larvae = assay: Zebrafish larvae bathed in drug-containing medium; heart beat rate, contractility and blood flow monitored by microscope; assay type: in vivo; details: for effect on heart beat rate, contractility and blood flow: drug added to bathing medium, 2 d old larvae, 100 μM (FIG. 1) or increasing concentrations (FIG. 2); for effect on heart beat rate, contractility and blood flow (cardiac performance) of untreated fish: applied alone to the surrounding medium, 4 d old larvae (FIG. 4)
Procedure: About 50 zebrafish larvae were incubated for 2-7 d at 22-28° C. in petri dishes filled with 30 ml embryo medium.
(§1) At the day of the experiment 10 larvae were transferred to small petri dishes filled with 10 ml embryo medium, 0.5 ml MESAB solution and 10 μl of the respective drug (or +10 μl of a second drug) added from a 1000-fold stock solution prepared with DMSO, these three components were previously mixed in 50 ml plastic tubes (controls only receive 10 μl DMSO).
(§2) At certain time points the contractility of the heart and blood flow was monitored, and the heart rate was determined by counting the heart beat with the aid of a stereo-microscope.

[1] = system: three-day old zebrafish larvae; assay: Induction of arrhythmic heart beat in three-day old zebrafish larvae by arrhythmia-inducing drugs; details: low doses in medium; anaesthetized larvae, dissecting microscope
[2] = system: nifedipine-treated zebrafish; assay: Reversal of nifedipine-induced effects on the heart of zebrafish larvae by a second drug; assay type: in vivo
Procedure: Similarely, putative anti-arrhythmic agents can be identified by studying heart beats of teleost larvae which were bathed prior to or simultaneous with the addition of the agents in a solution of an arrhythmia-inducing drug.
as §1, §2

[3] = molecular target: HERG (human ether-a-gogo-related gene) (Homo sapiens, UniProt Q12809); details: cited from earlier work
Sequence of HERG (human ether-a-gogo-related gene) (Q12809 whole entry): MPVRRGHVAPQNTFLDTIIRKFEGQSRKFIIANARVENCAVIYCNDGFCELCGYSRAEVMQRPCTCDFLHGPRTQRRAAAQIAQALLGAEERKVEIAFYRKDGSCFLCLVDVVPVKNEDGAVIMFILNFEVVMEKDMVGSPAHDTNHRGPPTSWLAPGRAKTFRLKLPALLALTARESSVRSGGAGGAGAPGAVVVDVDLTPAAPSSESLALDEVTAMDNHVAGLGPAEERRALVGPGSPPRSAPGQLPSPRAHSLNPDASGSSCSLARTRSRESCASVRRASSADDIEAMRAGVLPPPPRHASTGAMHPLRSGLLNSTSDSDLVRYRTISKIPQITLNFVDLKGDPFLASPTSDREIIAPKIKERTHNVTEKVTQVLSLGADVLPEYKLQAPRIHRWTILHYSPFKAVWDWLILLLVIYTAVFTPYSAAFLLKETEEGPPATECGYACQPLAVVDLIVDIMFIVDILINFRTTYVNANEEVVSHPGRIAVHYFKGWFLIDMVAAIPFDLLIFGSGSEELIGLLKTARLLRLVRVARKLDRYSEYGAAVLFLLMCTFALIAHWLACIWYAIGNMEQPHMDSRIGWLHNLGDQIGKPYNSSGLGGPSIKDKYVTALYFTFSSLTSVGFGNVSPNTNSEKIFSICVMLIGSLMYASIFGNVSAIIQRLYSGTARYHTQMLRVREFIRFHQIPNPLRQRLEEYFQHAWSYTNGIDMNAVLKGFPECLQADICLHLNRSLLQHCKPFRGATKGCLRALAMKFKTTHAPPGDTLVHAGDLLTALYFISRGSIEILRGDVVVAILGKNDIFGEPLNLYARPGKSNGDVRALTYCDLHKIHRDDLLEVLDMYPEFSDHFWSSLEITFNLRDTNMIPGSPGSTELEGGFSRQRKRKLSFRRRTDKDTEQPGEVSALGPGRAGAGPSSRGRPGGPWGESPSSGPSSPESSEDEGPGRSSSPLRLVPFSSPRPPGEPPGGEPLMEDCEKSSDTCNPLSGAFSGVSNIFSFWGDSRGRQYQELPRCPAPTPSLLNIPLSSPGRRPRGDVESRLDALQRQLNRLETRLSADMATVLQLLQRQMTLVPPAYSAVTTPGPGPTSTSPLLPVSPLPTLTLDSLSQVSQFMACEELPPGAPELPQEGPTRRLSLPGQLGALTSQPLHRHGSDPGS

Structure (SMILES): CC(C)NCC(O)COc1cccc2ccccc12 (stereo not shown) [propanolol]
- effect on heart beat rate, contractility and blood flow (zebrafish larvae): decrease in heart beat rate, contractility and blood flow

Structure (SMILES): COc1ccc(CCN(C)CCCC(C#N)(c2ccc(OC)c(OC)c2)C(C)C)cc1OC (stereo not shown) [verapamil]
- effect on heart beat rate, contractility and blood flow (zebrafish larvae): decrease in heart beat rate, contractility and blood flow

Structure (SMILES): CSc1ccc2c(c1)N(CCC1CCCCN1C)c1ccccc1S2 (stereo not shown) [thioridazine]
- larvae with induced arrhythmic heart beat [1]: ~100 % of larvae

Structure (SMILES): O=c1[nH]c2ccccc2n1C1CCN(CCCC(c2ccc(F)cc2)c2ccc(F)cc2)CC1 [pimozide]
- larvae with induced arrhythmic heart beat [1]: ~100 % of larvae

Structure (SMILES): CC(C)(C)c1ccc(C(O)CCCN2CCC(C(O)(c3ccccc3)c3ccccc3)CC2)cc1 (stereo not shown) [terfenadine]
- larvae with induced arrhythmic heart beat [1]: ~100 % of larvae

Structure (SMILES): O=C(CCCN1CC=C(n2c(=O)[nH]c3ccccc32)CC1)c1ccc(F)cc1 [droperidol]
- larvae with induced arrhythmic heart beat [1]: ~100 % of larvae

Structure (SMILES): COC(=O)C1=C(C)NC(C)=C([N+](=O)[O-])C1c1ccccc1C(F)(F)F (racemic) [Bay K 8644, 1,4-dihydro-2,6-dimethyl-5-nitro-4-[2′-(trifluoromethyl)phenyl]-3-pyridinecarboxylic acid methyl ester]
- effect on heart beat rate, contractility and blood flow (cardiac performance) of untreated fish (zebrafish larvae): nearly negligible effects
- effect on heart beat rate, contractility and blood flow (cardiac performance) of untreated fish (zebrafish larvae; listed as (+/−)Bay K 8644): nearly no effect
- re-animation of larvae with arrest of the heart beat ([2]; arrest induced by 50 μM nifedipine for 1 h, added to bathing solution, 3 d old larvae (FIG. 5)): re-animated within minutes
- contractility of nifedipine-treated zebrafish ([2]; nifedipine-treated larvae (FIG. 3)): strong increase in contractility
- blocking of the effects of nifedipine ([2]; simultaneous addition with nifedipine, 4 d old larvae (FIG. 3)): completely blockable

Structure (SMILES): COc1ccc(CCN2CCC(Nc3nc4ccccc4n3Cc3ccc(F)cc3)CC2)cc1 [astemizole]
- larvae with induced arrhythmic heart beat [1]: ~100 % of larvae

Structure (SMILES): O=C(CCCN1CCC(O)(c2ccc(Cl)cc2)CC1)c1ccc(F)cc1 [haloperidol]
- block of HERG [3]: high affinity block
- larvae with induced arrhythmic heart beat [1]: ~100 % of larvae

Structure (SMILES): COc1cc(N)c(Cl)cc1C(=O)NC1CCN(CCCOc2ccc(F)cc2)CC1OC (stereo not shown) [cisapride]
- block of HERG [3]: high affinity block
- larvae with induced arrhythmic heart beat [1]: ~100 % of larvae
